Assay results as given in patent publication US20230000950A1, “COMPOSITION COMPRISING GLUCAGON AND GLP-1 AND GIP RECEPTOR DUAL AGONIST AND THERAPEUTIC USE OF SAME” (HANMI PHARM. CO., LTD., priority 2019, published 2023).

T1: human GIP receptor (Homo sapiens, UniProt P48546)
T1 construct: expressed in transfected cells; host or cells: CHO DG44
T1 sequence (P48546 22-466): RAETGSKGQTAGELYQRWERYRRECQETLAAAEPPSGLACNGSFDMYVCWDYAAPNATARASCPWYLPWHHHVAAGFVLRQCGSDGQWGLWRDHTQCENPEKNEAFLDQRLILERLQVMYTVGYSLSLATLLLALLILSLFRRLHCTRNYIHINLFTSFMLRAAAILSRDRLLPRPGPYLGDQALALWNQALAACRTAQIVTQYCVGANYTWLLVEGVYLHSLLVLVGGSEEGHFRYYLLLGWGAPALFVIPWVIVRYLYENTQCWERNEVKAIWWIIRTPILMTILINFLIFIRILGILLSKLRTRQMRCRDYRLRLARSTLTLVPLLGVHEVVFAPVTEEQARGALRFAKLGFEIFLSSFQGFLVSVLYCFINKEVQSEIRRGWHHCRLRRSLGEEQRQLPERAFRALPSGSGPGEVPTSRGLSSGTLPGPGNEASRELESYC

T2: human GIP receptor (human, UniProt P48546 22-466)
T2 sequence (looked up): T1 sequence (P48546 22-466)

B1: tirzepatide (peptide)
peptide: YXEGTFTSDYSIXLDKIAQKAFVQWLIAGGPSSGAPPPS
modifications: not fully specified; X at positions 2 and 13 = 2-methylalanine (Aib); Lys 20 N6-[(22S)-22,42-dicarboxy-10,19,24-trioxo-3,6,12,15-tetraoxa-9,18,23-triazadotetracontan-1-oyl]; C-terminal serinamide

Legend:
human GLP-1 receptor [1] = molecular target: T3, human GLP-1 receptor (Homo sapiens, UniProt P43220); test: cAMP activity of dual agonist in cell line expressing human GLP-1 receptor; assay type: cell-based; conditions: EC50 compared with native GLP-1, CHO DG44 cells
T3 construct: expressed in transfected cells; host or cells: CHO DG44
T3 sequence (P43220 24-463): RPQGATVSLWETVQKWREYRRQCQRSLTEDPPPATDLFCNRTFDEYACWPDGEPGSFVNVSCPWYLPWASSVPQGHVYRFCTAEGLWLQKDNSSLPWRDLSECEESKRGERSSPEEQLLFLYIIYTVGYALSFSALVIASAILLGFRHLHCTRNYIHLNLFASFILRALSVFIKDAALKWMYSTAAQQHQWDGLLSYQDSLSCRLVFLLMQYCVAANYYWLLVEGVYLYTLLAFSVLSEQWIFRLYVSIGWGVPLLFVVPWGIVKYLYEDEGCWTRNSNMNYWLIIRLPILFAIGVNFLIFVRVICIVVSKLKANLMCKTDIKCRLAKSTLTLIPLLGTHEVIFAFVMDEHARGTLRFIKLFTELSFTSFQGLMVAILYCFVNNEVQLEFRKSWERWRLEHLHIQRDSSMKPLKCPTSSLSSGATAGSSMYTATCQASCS
From the text: (§1) and GIP A recombinant vector was constructed using the expression vector X0GC/dhfr so as to express human GLP-1 receptor and human GIP receptor, then transformed into CHO DG44 cells using lipofectamine, and selectively cultured in a selective medium containing G418 and methotrexate. From this, monoclonal cell lines were selected by limiting dilution. Among these, cell lines showing excellent concentration-dependent cAMP response to GLP-1 and GIP were finally selected.
(§2) In the cell lines expressing human GLP-1 receptor and human GIP receptor produced in Example 6, the activity of the dual agonist synthesized in Example 7 was measured.
(§3) Specifically, the transformed cell lines of Example 6 were subcultured 3 or 4 times a week, and then the subcultured cell lines were seeded in a 384-well plate by 6×10^3 per well and cultured for 24 hours. In HBSS (Hank's balanced salt solution) buffer containing 0.5 mM IBMX (3-isobutyl-1-methylxanthine), 0.1% BSA (bovine serum albumin), and 5 mM HEPES (4-(2-hydroxyethyl)-1-piperazineethanesulfonic acid), native GLP-1 and GIP were suspended at 200 nM and the dual agonist at 1600 nM, and then serially diluted 4-fold 10 times. This was applied to the cAMP assay kit (LANCE cAMP 384 kit, PerkinElmer) and added to each of the cultured cell lines, and then the fluorescence value was measured.

CD-HFD mouse model = test: CD-HFD (choline-deficient and high-fat, high-cholesterol diet) mouse model of NASH and fibrosis: NAS and liver collagen expression; assay type: in vivo; conditions: 6 weeks repeated administration Q2D subcutaneous, vs CD-HFD vehicle control
From the text: In order to verify the efficacy on NASH and fibrosis improvement by combined administration of the long-acting glucagon derivative and GLP-1/GIP dual agonist (tirzepatide) according to the present invention prepared in Examples, a CD-HFD (choline-deficient and high-fat, high-cholesterol diet) mouse model was used.
Mice induced by 8-week CD-HFD were divided into a vehicle control group, a long-acting glucagon derivative (1.3 nmol/kg, Q2D, subcutaneous) administration group, a dual agonist (73 nmol/kg, Q2D, subcutaneous) administration group, and a long-acting glucagon derivative and dual agonist combined administration group, and repeated administration was performed for 6 weeks. As a negative control group, a group administered with a vehicle to normal diet mice was used. After 6 weeks of repeated administration, the liver tissue of each mouse was taken as an autopsy, and the efficacy on NASH and fibrosis improvement was evaluated by measuring NAS (NAFLD activity score) through H&E staining and collagen expression through quantitative PCR.
For the statistical processing in all the cases, the vehicle group (control group) and the test groups were compared using one-way ANOVA, and the t-test was used to compare the additional efficacy of the combined administration group with that of the single administration group (* to ** p<0.05 to 0.001 vs. vehicle control group).

human GIP receptor [2] = molecular target: T1, human GIP receptor; test: cAMP activity of dual agonist in cell line expressing human GIP receptor; assay type: cell-based; conditions: EC50 compared with native GIP, CHO DG44 cells
From the text: as §1, §2, §3

[3] = test system: high-fat diet-induced obese mouse; test: High-fat diet-induced obese mice: body weight, fat weight, blood lipids, HOMA-IR, energy metabolism-related gene expression; assay type: in vivo; conditions: 21 days, subcutaneous; long-acting glucagon derivative 2.0 nmol/kg once every two days, tirzepatide 20 nmol/kg once every two days, Saxenda 50 nmol/kg twice a day
Description: A high-fat diet-induced obese mouse, which was widely used as an obese animal model, was used for this study. The body weight of the mice was about 50 g to 55 g before administration. During the study period, seven mice were housed and had free access to water. The lights were turned off from 6 P.M. to 6 A.M.
The administration was performed by subcutaneous injection in all cases.
The experiment was terminated on the 21st day, the changes in body weight of the mice corresponding to each group were measured every two days during the experiment. After the experiment was terminated, the fat weight, blood lipid levels, HOMA-IR, and energy metabolism-related gene expression in tissues were measured.

human GIP receptor [4] = molecular target: T2, human GIP receptor; test: cell-based or functional assay
human GLP-1 receptor [5] = molecular target: human GLP-1 receptor (human, UniProt P43220 24-463); test: cell-based or functional assay

Row | Molecule | Relative in vitro activity to native ligand (EC50), GLP-1 receptor (human GLP-1 receptor [1]) | NAS (NAFLD activity score) (CD-HFD mouse model; long-acting glucagon derivative 1.3 nmol/kg, dual agonist 73 nmol/kg, H&E staining) | collagen expression in liver tissue (CD-HFD mouse model; quantitative PCR) | Relative in vitro activity to native ligand (EC50), GIP receptor (human GIP receptor [2]) | change in body weight compared to before administration [3] | Relative in vitro activity to native ligand (EC50), cAMP assay (human GIP receptor [4]) | Relative in vitro activity to native ligand (EC50), cAMP assay (human GLP-1 receptor [5])
1 | CC[C@H](C)[C@H](NC(=O)[C@H](CC(C)C)NC(=O)[C@H](Cc1c[nH]c2ccccc12)NC(=O)[C@H](CCC(N)=O)NC(=O)[C@@H](NC(=O)[C@H](Cc1ccccc1)NC(=O)[C@H](C)NC(=O)[C@H](CCCCNC(=O)COCCOCCNC(=O)COCCOCCNC(=O)CC[C@H](NC(=O)CCCCCCCCCCCCCCCCCCC(=O)O)C(=O)O)NC(=O)[C@H](CCC(N)=O)NC(=O)[C@H](C)NC(=O)[C@@H](NC(=O)[C@H](CCCCN)NC(=O)[C@H](CC(=O)O)NC(=O)[C@H](CC(C)C)NC(=O)C(C)(C)NC(=O)[C@@H](NC(=O)[C@H](CO)NC(=O)[C@H](Cc1ccc(O)cc1)NC(=O)[C@H](CC(=O)O)NC(=O)[C@H](CO)NC(=O)[C@@H](NC(=O)[C@H](Cc1ccccc1)NC(=O)[C@@H](NC(=O)CNC(=O)[C@H](CCC(=O)O)NC(=O)C(C)(C)NC(=O)[C@@H](N)Cc1ccc(O)cc1)[C@@H](C)O)[C@@H](C)O)[C@@H](C)CC)[C@@H](C)CC)C(C)C)C(=O)N[C@@H](C)C(=O)NCC(=O)NCC(=O)N1CCC[C@H]1C(=O)N[C@@H](CO)C(=O)N[C@@H](CO)C(=O)NCC(=O)N[C@@H](C)C(=O)N1CCC[C@H]1C(=O)N1CCC[C@H]1C(=O)N1CCC[C@H]1C(=O)N[C@@H](CO)C(N)=O [Dual agonist (tirzepatide)] | 1.3% | significantly reduced | significantly reduced | 6.7% | −19.39% | – | –
2 | B1 | – | – | – | – | – | 6.7% | 1.3%
